Reference: patent US20210379042A1, “METHODS FOR MONITORING TUMOR LYSIS SYNDROME” (Sumitomo Dainippon Pharma Oncology, Inc., priority 2018, published 2021)

Key:
[1] = statement without data; prodrugs described in WO 2016/187316 and WO 2018/094275; cited from earlier work
[2] = tested on: patients having newly diagnosed AML; assay: Example 5: alvocidib plus daunorubicin/cytarabine (ACD) with TLS monitoring, treatment-emergent adverse events classified as TLS; assay type: in vivo, human
Procedure: This study will evaluate the safety and efficacy of alvocidib in combination with cytarabine/daunorubicin (7+3) in patients with newly diagnosed AML. Treatment consists of increasing dose levels of alvocidib starting at 20 mg/m^2 as a 30-minute IV bolus followed by 30 mg/m^2 over 4 hours on days 1-3, cytarabine 100 mg/m^2/day by continuous IV infusion on days 5-11, followed by (e.g., followed about 30 minutes later by) daunorubicin 60 mg/m^2 IV on days 5-7. Reinduction therapy with alvocidib (same dose as induction) days 1-3, followed by cytarabine 100 mg/m^2/day continuous IV on days 5-9, and daunorubicin 45 mg/m^2 IV days 5-6 is recommended in patients with >10% and >5% cellularity and blasts, respectively.
For patients at high risk for TLS, including those with risk scores of greater than or equal to 2 according to Table 1, those with monocytic leukemia phenotype, or those with a history of FLT3 positive AML, monitoring will include: (i) obtaining a STAT serum potassium at the end of an alvocidib infusion; (ii) obtaining a serum potassium 2 hours after the end of an alvocidib infusion, (iii) obtaining a full TLS panel 4 hours after the end of an alvocidib infusion, and (iv) monitoring fibrinogen levels at baseline and then as clinically indicated. If there is evidence of clinically meaningful TLS, a TLS panel will be obtained every 2 hours during the first 24 hours after the end of an alvocidib infusion (assessment of LDH levels at least once every 24 hours is also recommended). If there is no evidence of clinically meaningful TLS, a TLS panel will be obtained every 4 hours during the first 24 hours after the end of an alvocidib infusion (assessment of LDH levels at least once every 24 hours is also recommended). If, after the first 24 hours after the end of an alvocidib infusion, there is no evidence of TLS, a TLS panel will be obtained approximately every 6 hours for the remainder of alvocidib treatment, and then every 12 hours after completion of alvocidib during daunorubicin and cytarabine treatment (assessment of LDH levels at least once every 24 hours is also recommended).
For patients not at high risk for TLS, tumor lysis evaluations will be monitored at the start of alvocidib treatment and approximately every 4 hours thereafter for 24 hours. Laboratory studies during this period will be run as a “STAT” to ensure the results are available in a timely manner. If there is no evidence of TLS during first the 24 hours, then tumor lysis evaluations will be monitored approximately every 6-8 hours for the remainder of alvocidib treatment, and then every 12 hours after the completion of alvocidib during cytarabine and daunorubicin treatment. Fibrinogen levels will be monitored at baseline and then as clinically indicated.
Patients were treated with ACD according to a treatment regimen similar to that described in Example 2, and monitored for TLS according to the monitoring protocols described in Example 2. Briefly, treatment consisted of increasing dose levels of alvocidib starting at 20 mg/m^2 as a 30-minute (±10 minutes) IV bolus followed by 30 mg/m^2 as a 4-hour (±15 minutes) IV infusion on days 1-3, followed by daunorubicin 60 mg/m^2 IV on days 5-7 via IV bolus of up to 15 minutes (±5 minutes) in duration each day, followed by (e.g., followed immediately by) cytarabine 100 mg/m^2/day by 24-hour (±2 hours) continuous IV infusion on days 5-11. Reinduction therapy with alvocidib (same dose as induction) days 1-3, followed by daunorubicin 45 mg/m^2 IV via IV bolus of up to 15 minutes (±5 minutes) in duration each day on days 5-6, followed by (e.g., followed immediately by) cytarabine 100 mg/m^2/day continuous, 24-hour IV infusion (±2 hours) on days 5-9, was recommended in patients with evidence of residual leukemia, defined as >5% bone marrow blasts plus >10% cellularity, based on day 14 (±3 days) bone marrow. […]

[3] = tested on: cancer patients being treated with alvocidib; assay: Clinical trials using a TLS monitoring protocol described herein: deaths attributed to TLS; assay type: in vivo, human; conditions: to date
Description: Current protocols for monitoring the development of TLS in patients vary greatly due to interindividual clinician experience and different standards of care among institutions. The risk for and rapid development of TLS in cancer patients being treated with alvocidib presents a need for more precise but clinically practical TLS monitoring protocols that allow subjects to remain on alvocidib treatment and avoid dose-limiting TLS. To date, there have been no deaths attributed to TLS in clinical trials using a TLS monitoring protocol described herein.

[4] = Study Total, all dose levels (N = 31)
[5] = alvocidib 30/40 mg/m^2 (bolus/infusion) days 1-3 with daunorubicin and cytarabine (N = 3)
[6] = alvocidib 30/60 mg/m^2 (bolus/infusion) days 1-3 with daunorubicin and cytarabine (N = 22)

| Structure (SMILES) | oral bioavailability [1] | Tumor lysis syndrome, treatment-emergent adverse events, number of patients [2, 4] | Tumor lysis syndrome, treatment-emergent adverse events, percent of patients [2, 4] | Tumor lysis syndrome, treatment-emergent adverse events, number of patients ([2]; alvocidib 20/30 mg/m^2 (bolus/infusion) days 1-3 with daunorubicin and cytarabine (N = 3)) | Tumor lysis syndrome, treatment-emergent adverse events, number of patients [2, 5] | Tumor lysis syndrome, treatment-emergent adverse events, percent of patients [2, 5] | Tumor lysis syndrome, treatment-emergent adverse events, number of patients ([2]; alvocidib 30/50 mg/m^2 (bolus/infusion) days 1-3 with daunorubicin and cytarabine (N = 3)) | Tumor lysis syndrome, treatment-emergent adverse events, number of patients [2, 6] | Tumor lysis syndrome, treatment-emergent adverse events, percent of patients [2, 6] | deaths attributed to TLS [3] |
| --- | --- | --- | --- | --- | --- | --- | --- | --- | --- | --- |
| CN1CC[C@H](c2c(OP(=O)(O)O)cc(O)c3c(=O)cc(-c4ccccc4Cl)oc23)[C@H](O)C1 [Ia] | orally bioavailable | – | – | – | – | – | – | – | – | – |
| CN1CC[C@H](c2c(O)cc(O)c3c(=O)cc(-c4ccccc4Cl)oc23)[C@H](O)C1 [Alvocidib, 2-(2-chlorophenyl)-5,7-dihydroxy-8-[(3 S,4R)-3-hydroxy-1-methylpiperidin-4-yl]chromen-4-one] | – | 8 | 25.8% | 0 | 1 | 33.3% | 0 | 7 | 31.8% | no deaths |
